Consider 21 molecules from patent US9175007B2, “IRAK inhibitors and uses thereof” (Nimbus Iris, Inc., priority 2013, dated 2015).

The target in this assay is T1, IRAK4 (Homo sapiens, UniProt Q9NWZ3).
T1 construct: purchased CARNA Bioscience 09-145
T1 sequence (Q9NWZ3 1-460): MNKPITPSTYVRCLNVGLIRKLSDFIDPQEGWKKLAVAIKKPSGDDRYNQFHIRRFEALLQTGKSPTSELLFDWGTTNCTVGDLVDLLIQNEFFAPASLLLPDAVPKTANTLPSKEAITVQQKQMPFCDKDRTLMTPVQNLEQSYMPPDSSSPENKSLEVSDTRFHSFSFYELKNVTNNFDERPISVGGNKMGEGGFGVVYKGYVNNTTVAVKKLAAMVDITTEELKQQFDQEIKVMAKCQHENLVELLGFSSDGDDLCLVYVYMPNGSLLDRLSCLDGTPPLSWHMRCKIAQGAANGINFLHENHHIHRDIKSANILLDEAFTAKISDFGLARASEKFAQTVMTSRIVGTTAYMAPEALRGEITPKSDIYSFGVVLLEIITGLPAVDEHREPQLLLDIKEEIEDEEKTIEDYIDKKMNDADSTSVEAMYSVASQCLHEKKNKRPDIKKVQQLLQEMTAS
As to the kind of experiment: IRAK-4 activity inhibition assay (Caliper). In kind it is biochemical. The note with it: 3.5 nM IRAK4, 37 μM ATP, 1.5 μM Peptide 8. The protocol:
A 1× kinase base buffer was prepared from 50 mM HEPES, pH 7.5 and 0.0015% Brij-35. A stop buffer was prepared from 100 mM HEPES, pH 7.5, 0.015% Brij-35, 0.2% Coating Reagent #3, and 50 mM EDTA.
Test compound was diluted to 50× of the final desired highest inhibitor concentration in reaction by 100% DMSO. 100 ul of this compound dilution was transferred to a well in a 96-well plate.
Test compound was serially diluted by transferring 30 μl to 60 μl of 100% DMSO in the next well and so forth for a total of 10 concentrations. 100 μl of 100% DMSO was added to two empty wells for no compound control and no enzyme control in the same 96-well plate.
A new 96-well plate was marked as intermediate plate. 5 μl of compound serial dilution was transferred from source plate to the corresponding wells of the intermediate plate. 45 μl of 1× kinase base buffer (KB buffer) was added to each well of the intermediate plate. The intermediate plate was placed for 10 min on a shaker.
5 μl of each well was transferred from the 96-well intermediate plate to a 384-well plate in duplicates. For example, A1 of the 96-well plate is transferred to A1 and A2 of the 384-well plate. A2 of the 96-well plate is transferred to A3 and A4 of the 384-well plate, and so on.
IRAK4 and DTT in 1× kinase base buffer was added. The 2.5× enzyme mix contained 8.8 nM IRAK4 and 5 mM DTT.
Peptide 8, ATP, MgCl2 and MnCl2 were added in the 1× kinase base buffer. The 2.5× peptide mix contained 3.75 μM peptide 8, 92.5 μM ATP, 12.5 mM MgCl2 and 2.5 mM MnCl2.
Assay plate already contained 5 μl of compound in 10% DMSO. Added 10 μl of 2.5× enzyme solution to each well of the 384-well assay plate, except no enzyme control wells. The final concentration of IRAK4 in reaction was 3.5 nM. Added 10 μl of 1× kinase base buffer to no enzyme control wells in the assay plate. Incubated at room temperature for 10 min.
Added 10 μl of 2.5× peptide solution to each well of the 384-well assay plate. The final concentration of Peptide 8 and ATP was 1.5 μM and 37 μM, respectively. Incubated at 28° C. for 40 minutes. Added 25 μl of stop buffer to stop reaction. Collected data on Caliper.
Copied conversion % data from Caliper program. Converted conversion % values to percent inhibition values. Percent inhibition=(max-conversion %)/(max-min)*100, where “max” means the conversion % of DMSO control and “min” means the conversion % of no enzyme control.
`c1ccc(Nc2nc(N[C@H]3CC[C@H](N4CCOCC4)CC3)c3c4c(sc3n2)CCC4)cc1` [Compound I-1, N4-((1r,4r)-4-morpholinocyclohexyl)-N2-phenyl-6,7-dihydro-5H-cyclopenta[4,5]thieno[2,3-d]pyrimidine-2,4-diamine]: the IC50 (usually the concentration at which inhibition is half-maximal) is at most 5 µM.

`CN(C)[C@H]1CC[C@H](Oc2nc(Nc3ccccc3)nc3sc4c(c23)CCC4)CC1` [Compound I-2, 12-[[4-(dimethylamino)cyclohexyl]oxy]-N-phenyl-7-thia-9,11-diazatricyclo[6.4.0.0[2,6]]dodeca-1(8),2(6),9,11-tetraen-10-amine] came in with a half-inhibitory concentration (IC50) of at most 5 µM.

In turn, `Fc1cccc(Nc2nc(N[C@H]3CC[C@H](N4CCOCC4)CC3)c3c4c(sc3n2)CCC4)c1` [Compound I-3, N2-(3-fluorophenyl)-N4-((1r,4r)-4-morpholinocyclohexyl)-6,7-dihydro-5H-cyclopenta[4,5]thieno[2,3-d]pyrimidine-2,4-diamine] gave an IC50 of at most 5 µM.

Consider `Cc1cccc(Nc2nc(N[C@H]3CC[C@H](N4CCOCC4)CC3)c3c4c(sc3n2)CCC4)c1` [Compound I-4, N4-((1r,4r)-4-morpholinocyclohexyl)-N2-(m-tolyl)-6,7-dihydro-5H-cyclopenta[4,5]thieno[2,3-d]pyrimidine-2,4-diamine], for which the IC50 is at most 5 µM.

The molecule `COc1cccc(Nc2nc(N[C@H]3CC[C@H](N4CCOCC4)CC3)c3c4c(sc3n2)CCC4)c1` [Compound I-5, 10-N-(3-methoxyphenyl)-12-N-[4-(morpholin-4-yl)cyclohexyl]-7-thia-9,11-diazatricyclo[6.4.0.0^[2,6]]dodeca-1(8),2(6),9,11-tetraene-10,12-diamine] came in with a concentration for half-maximal inhibition (IC50) of at most 5 µM.

As to `Cc1ccc(Nc2nc(N[C@H]3CC[C@H](N4CCOCC4)CC3)c3c4c(sc3n2)CCC4)cc1` [Compound I-6, N4-((1r,4r)-4-morpholinocyclohexyl)-N2-(p-tolyl)-6,7-dihydro-5H-cyclopenta[4,5]thieno[2,3-d]pyrimidine-2,4-diamine], the IC50 lay within 20 to 50 µM.

`c1ccc(Nc2nc(N[C@H]3CC[C@H](N4CCOCC4)CC3)c3c4c(sc3n2)CCCC4)cc1` [Compound I-7, 3-N-[4-(morpholin-4-yl)cyclohexyl]-5-N-phenyl-8-thia-4,6-diazatricyclo[7.4.0.0[2,7]]trideca-1(9),2,4,6-tetraene-3,5-diamine] gave an IC50 of at most 5 µM.

The molecule `c1coc(Nc2nc(N[C@H]3CC[C@H](N4CCOCC4)CC3)c3c4c(sc3n2)CCCC4)n1` [Compound I-8, 3-N-[4-(morpholin-4-yl)cyclohexyl]-5-N-(1,3-oxazol-2-yl)-8-thia-4,6-diazatricyclo[7.4.0.0[2,7]]trideca-1(9),2(7),3,5-tetraene-3,5-diamine] yielded an IC50 of 5 to 20 µM.

As for `c1coc(Nc2nc(N[C@H]3CC[C@H](N4CCOCC4)CC3)c3c4c(sc3n2)CCC4)n1` [Compound I-9, 12-N-[4-(morpholin-4-yl)cyclohexyl]-10-N-(1,3-oxazol-2-yl)-7-thia-9,11-diazatricyclo[6.4.0.0[2,6]]dodeca-1(8),2(6),9,11-tetraene-10,12-diamine], the concentration for half-maximal inhibition (IC50) was in the range of 5 to 20 µM.

Molecule `CN1CCC(c2ccc(Nc3nc(N[C@H]4CC[C@H](N5CCOCC5)CC4)c4c5c(sc4n3)CCC5)cc2)CC1` [Compound I-10, 10-N-[4-(1-methylpiperidin-4-yl)phenyl]-12-N-[4-(morpholin-4-yl)cyclohexyl]-7-thia-9,11-diazatricyclo[6.4.0.0[2,6]]dodeca-1(8),2(6),9,11-tetraene-10,12-diamine] returned an IC50 of at most 5 µM.

Regarding `c1c[nH]c(Nc2nc(N[C@H]3CC[C@H](N4CCOCC4)CC3)c3c4c(sc3n2)CCC4)n1` [Compound I-11, 10-N-(1H-imidazol-2-yl)-12-N-[4-(morpholin-4-yl)cyclohexyl]-7-thia-9,11-diazatricyclo[6.4.0.0[2,6]]dodeca-1(8),2(6),9,11-tetraene-10,12-diamine], the half-inhibitory concentration (IC50) lay in the range of 20 to 50 µM.

On to `c1c[nH]c(Nc2nc(N[C@H]3CC[C@H](N4CCOCC4)CC3)c3c4c(sc3n2)CCCC4)n1` [Compound I-12, 5-N-(1H-imidazol-2-yl)-3-N-[4-(morpholin-4-yl)cyclohexyl]-8-thia-4,6-diazatricyclo[7.4.0.0[2,7]]trideca-1(9),2(7),3,5-tetraene-3,5-diamine], for which the 50% inhibitory concentration (IC50) was in the range of 20 to 50 µM.

For `CN(C)[C@H]1CC[C@H](Oc2nc(Nc3ccc(N4CCNCC4)cc3)nc3sc4c(c23)CCC4)CC1` [Compound I-13, 12-[[4-(dimethylamino)cyclohexyl]oxy]-N-[4-(piperazin-1-yl)phenyl]-7-thia-9,11-diazatricyclo[6.4.0.0[2,6]]dodeca-1(8),2(6),9,11-tetraen-10-amine], the concentration for half-maximal inhibition (IC50) is at most 5 µM.

`Cn1cc(Nc2nc(NC3CCCCC3)c3c4c(sc3n2)CCC4)cn1` [Compound I-15, 12-N-cyclohexyl-10-N-(1-methyl-1H-pyrazol-4-yl)-7-thia-9,11-diazatricyclo[6.4.0.0[2,6]]dodeca-1(8),2(6),9,11-tetraene-10,12-diamine] gave a half-inhibitory concentration (IC50) of at most 5 µM.

Take `Cn1cc(Nc2nc(N[C@H]3CC[C@H](O)CC3)c3c4c(sc3n2)CCC4)cn1` [Compound I-16, 4-([10-[(1-methyl-1H-pyrazol-4-yl)amino]-7-thia-9,11-diazatricyclo[6.4.0.0[2,6]]dodeca-1(8),2(6),9,11-tetraen-12-yl]amino)cyclohexan-1-ol]: the half-maximal inhibitory concentration (IC50) is at most 5 µM.

As to `CN(C)[C@H]1CC[C@H](Oc2nc(Nc3ccccc3)nc3sc4c(c23)C(CC(N)=O)CC4)CC1` (stereo partly drawn) [Compound I-17, 2-(12-[[4-(dimethylamino)cyclohexyl]oxy]-10-(phenylamino)-7-thia-9,11-diazatricyclo[6.4.0.0^[2,6]]dodeca-1(12),2(6),8,10-tetraen-3-yl)acetamide], the 50% inhibitory concentration (IC50) was at most 5 µM.

In turn, `CN(C)[C@H]1CC[C@H](Oc2nc(Nc3ccc(N4CCNCC4)cc3)nc3sc4c(c23)C(CC(N)=O)CC4)CC1` (stereo partly drawn) [Compound I-18, 2-(12-[[4-(dimethylamino)cyclohexyl]oxy]-10-[[4-(piperazin-1-yl)phenyl]amino]-7-thia-9,11-diazatricyclo[6.4.0.0[2,6]]dodeca-1(12),2(6),8,10-tetraen-3-yl)acetamide] returned a 50% inhibitory concentration (IC50) of at most 5 µM.

In turn, `Cn1cc(Nc2nc(O[C@H]3CC[C@H](N(C)C)CC3)c3c4c(sc3n2)CCC4CC(N)=O)cn1` (stereo partly drawn) [Compound I-20, 2-(12-[[4-(dimethylamino)cyclohexyl]oxy]-10-[(1-methyl-1H-pyrazol-4-yl)amino]-7-thia-9,11-diazatricyclo[6.4.0.0[2,6]]dodeca-1(8),2(6),9,11-tetraen-3-yl)acetamide] returned an IC50 of at most 5 µM.

As to `Cn1cc(Nc2nc(O[C@H]3CC[C@H](N(C)C)CC3)c3c4c(sc3n2)CC[C@H]4CC(N)=O)cn1` [Compound I-21, 2-[(3S)-12-[[4-(dimethylamino)cyclohexyl]oxy]-10-[(1-methyl-1H-pyrazol-4-yl)amino]-7-thia-9,11-diazatricyclo[6.4.0.0[2,6]]dodeca-1(8),2(6),9,11-tetraen-3-yl]acetamide], the IC50 was at most 5 µM.

On to `CN1CCC(c2ccc(Nc3nc(N[C@H]4CC[C@H](N(C)C)CC4)c4c5c(sc4n3)CCC5)cc2)CC1` [Compound I-67, N4-((1r,4r)-4-(dimethylamino)cyclohexyl)-N2-(4-(1-methylpiperidin-4-yl)phenyl)-6,7-dihydro-5H-cyclopenta[4,5]thieno[2,3-d]pyrimidine-2,4-diamine], for which the half-maximal inhibitory concentration (IC50) was at most 5 µM.

In turn, `CN1CCN(c2ccc(Nc3nc(O[C@H]4CC[C@H](N(C)C)CC4)c4c5c(sc4n3)CCC5)cc2)CC1` [Compound I-68, 12-[[4-(dimethylamino)cyclohexyl]oxy]-N-[4-(4-methylpiperazin-1-yl)phenyl]-7-thia-9,11-diazatricyclo[6.4.0.0[2,6]]dodeca-1(8),2(6),9,11-tetraen-10-amine] displayed an IC50 of at most 5 µM.
